Measured values published in patent publication US8580805B2, “Pyrimidine carboxamide derivatives” (priority 2010, dated 2013).

Key:
[1] = test system: adjuvant-induced arthritis in male Lewis rats; assay: adjuvant-induced arthritis test in rats; format: in vivo, rat; conditions: change day 28 minus day 21; 30 mg/kg by intubation each day for seven days; vehicle result in parenthesis
Description: As mentioned earlier, the compounds of formula (1) and pharmaceutically acceptable salts of compounds of formula (1) are useful in the treatment or prevention of inflammations and diseases where inflammation is the innate cause. For example, they can be used as anti-inflammatory agents in the treatment of inflammatory joint diseases, such as arthritis. To substantiate this assertion, representative compounds of formula (1) were tested for their inflammation-inhibiting properties in the adjuvant-induced arthritis test in rats as described in Int J Immunopharma, […], 12, 709-712.
A quantity of 0.1 ml of a 0.5% (weight/volume) suspension of heat-killed and dried mycobacterium butyricum in heavy mineral oil, containing 0.2% digitonin, is injected into the base of the tail of male Lewis rats (120-140 g). The animals are housed individually and receive feed and water ad libitum. The thus-induced arthritis is allowed to develop without treatment during 21 days. On day 21 the body weight of each animal is determined. At the same time, the volumes of the two hind paws of each animal are measured by immersing the paws in an aqueous plethysmograph up to the height of the lateral malleolus. Thereupon, the animals are divided into groups, each group comprising six animals of approximately the same average volumes of the hind paws. One group is administered suspending vehicle. The other groups are administered the micronized test compound suspended in an aqueous suspending vehicle [0.9% NaCl (w/v) containing 0.5% carboxymethyl cellulose (w/v), 0.86% benzyl alcohol (v/v) and 0.39% Tween 80 (v/v)]. The test compound in aqueous suspending vehicle (or vehicle alone) is administered to the animals by intubation each day over a period of seven days. The effect of the test compounds is monitored daily by measurement of the hind paw volumes and body weights. At the end of the treatment period (day 28), body weights and volumes of the hind paws are again determined. The changes over the treatment period are calculated. The change in paw volume or body weight equals the paw volume or body weight on day 28 minus paw volume or body weight on day 21.
The results determined for representative compounds of formula (1) in the test described hereinbefore are set forth in the following Table I. Therein, the results for vehicle is in parenthesis following the results for each tested compound at a dose level of 30 mg/kg in each test.

[2] = molecular target: T1, ovine COX-1 (Ovis aries, UniProt P05979); assay: COX Activity Assay (Cayman), colorimetric, COX-1; format: biochemical; conditions: at a level of 300 μM
T1 construct: purchased Cayman Chemicals
T1 sequence (P05979 25-600): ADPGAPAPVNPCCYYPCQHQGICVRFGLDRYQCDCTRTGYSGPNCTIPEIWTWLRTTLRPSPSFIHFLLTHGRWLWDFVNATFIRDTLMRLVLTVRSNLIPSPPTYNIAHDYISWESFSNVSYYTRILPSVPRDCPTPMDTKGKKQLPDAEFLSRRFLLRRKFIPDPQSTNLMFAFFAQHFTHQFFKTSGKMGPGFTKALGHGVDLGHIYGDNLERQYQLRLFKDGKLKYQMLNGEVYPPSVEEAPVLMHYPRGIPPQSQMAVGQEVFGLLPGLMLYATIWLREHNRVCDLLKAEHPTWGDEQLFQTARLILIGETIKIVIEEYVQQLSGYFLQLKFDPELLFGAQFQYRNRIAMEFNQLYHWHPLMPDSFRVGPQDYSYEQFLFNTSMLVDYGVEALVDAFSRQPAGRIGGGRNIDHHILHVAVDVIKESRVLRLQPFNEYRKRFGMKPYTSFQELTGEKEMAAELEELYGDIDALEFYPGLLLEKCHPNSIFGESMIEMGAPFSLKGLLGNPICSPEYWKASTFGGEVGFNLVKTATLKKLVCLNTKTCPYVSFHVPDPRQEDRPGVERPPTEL
Description: (§1) A representative compounds of formula (1a), was also tested for the effects on the activity of purified COX1, COX2, and LOX5 enzymes. In sharp contrast to the potent activity in the adjuvant-induced arthritis test in rats, the activity against the isolated arachidonic acid metabolizing enzymes was low.
(§2) COX activity was measured using an assay kit obtained from Cayman Chemicals in accord with the instruction manual of the manufacturer “COX Activity Assay, Catalog No. 760151, Colorimetric Assay for the Determination of COX Activity.” The enzyme activity was determined by the peroxidase activity of cyclooxygenases on arachidonic acid and monitored colorimetrically at 590 nm by the appearance of oxidized N,N,N′,N′-tetramethyl-p-phenylenediamine. Both ovine COX-1 and human recombinant COX-2 were obtained from Cayman Chemicals.

[3] = molecular target: T2, human recombinant COX-2 (Homo sapiens, UniProt P35354); assay: COX Activity Assay (Cayman), colorimetric, COX-2; format: biochemical; conditions: read-out: IC50 for COX2
T2 construct: purchased Cayman Chemicals
T2 sequence (P35354 18-604): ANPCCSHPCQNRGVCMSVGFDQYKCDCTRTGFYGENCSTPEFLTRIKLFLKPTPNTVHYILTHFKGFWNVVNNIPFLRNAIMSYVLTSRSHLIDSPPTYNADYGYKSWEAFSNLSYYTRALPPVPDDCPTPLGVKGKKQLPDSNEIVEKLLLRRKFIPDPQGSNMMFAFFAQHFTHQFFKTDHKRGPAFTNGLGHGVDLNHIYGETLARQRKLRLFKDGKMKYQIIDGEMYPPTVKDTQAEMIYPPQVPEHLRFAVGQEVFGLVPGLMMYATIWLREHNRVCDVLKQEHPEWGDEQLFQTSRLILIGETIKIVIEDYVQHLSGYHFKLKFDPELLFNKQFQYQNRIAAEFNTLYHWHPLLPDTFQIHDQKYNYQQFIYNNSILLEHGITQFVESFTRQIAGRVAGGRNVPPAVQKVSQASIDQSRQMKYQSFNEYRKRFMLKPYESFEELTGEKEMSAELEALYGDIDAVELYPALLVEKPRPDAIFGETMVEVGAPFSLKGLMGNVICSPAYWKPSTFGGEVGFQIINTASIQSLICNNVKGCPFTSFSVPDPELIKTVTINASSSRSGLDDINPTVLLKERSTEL
Description: as §1, §2

[4] = test system: purified potato 5-lipoxygenase; assay: LOX Inhibitor Screening Assay Kit (Cayman), colorimetric; format: biochemical; conditions: arachidonic acid as substrate
Description: A representative compounds of formula (1a), was also tested for the effects on the activity of purified COX1, COX2, and LOX5 enzymes. In sharp contrast to the potent activity in the adjuvant-induced arthritis test in rats, the activity against the isolated arachidonic acid metabolizing enzymes was low. LOX5 activity was also measured colorimetrically by the hydroperoxides generated from the incubation of purified potato 5-lipoxygenase (Cayman Chemical Item Number 60401) in the LOX Inhibitor Screening Assay Kit (Cayman Chemical Item Number 760700) using arachidonic acid as substrate and following the protocol provided by Cayman Chemical. The test substance A inhibited the enzyme at 300, 100, 30 μM at 89, 69, and 46%, respectively.

| Compound | Body weight change (g) [1] | Left paw volume (mL) [1] | Right paw volume (mL) [1] | effect on COX1 [2] | IC50 [3] | LOX5 inhibition ([4]; 30 μM) | LOX5 inhibition ([4]; 100 μM) | LOX5 inhibition ([4]; 300 μM) |
| --- | --- | --- | --- | --- | --- | --- | --- | --- |
| CNC(=O)c1cnc(C)nc1-c1cc(C(C)(C)C)c(O)c(C(C)(C)C)c1 [Compound A, 4-(3,5-di-tert-butyl-4-hydroxy-phenyl)-2-methyl-pyrimidine-5-carboxylic acid methylamide] | 25 ± 3 (13) g | −0.88 ± 0.12 (0.09) mL | −0.99 ± 0.15 (0.08) mL | no effect | 60 µM | 46% | 69% | 89% |
| CNC(=O)c1cnc(OC)nc1-c1cc(C(C)(C)C)c(O)c(C(C)(C)C)c1 [C, 4-(3,5-di-tert-butyl-4-hydroxy-phenyl)-2-methoxy-pyrimidine-5-carboxylic acid methylamide] | 28 ± 2 (13) g | −0.65 ± 0.02 (0.09) mL | −0.61 ± 0.01 (0.08) mL | – | – | – | – | – |
